{"source": "patent US9763918B2", "about": "“Compositions and methods for treating chronic urticaria” (Knopp Biosciences LLC, priority 2013, dated 2017)", "key": {"eosinophils [1]": {"test_system": "eosinophils", "format": "in vivo", "conditions": "minipigs, 7.5, 25, 75/50 mg/kg daily oral gavage, 39 weeks", "procedure": "In a 39-week repeat-dose toxicology study, minipigs were dosed at 0, 7.5, 25, and 75 mg/kg dexpramipexole by daily oral gavage through Study Day 45 and at 0, 7.5, 25, and 50 mg/kg dexpramipexole from Study Day 46 to study completion."}, "[2]": {"test_system": "Siglec-F lo IL5Rα hi positive cells (developing B cells, basophils and other cell populations)", "conditions": "mice, 30 mg/kg or 100 mg/kg daily gavage, 70 days, either dose", "procedure": "(§1) The study consisted of 3 groups of BALB/cByJ mice (10 mice per group). Mice received daily gavage treatments of either 30 mg/kg, 100 mg/kg of dexpramipexole or vehicle control for 70 days. Bone marrow was processed into single cell suspensions and cells were stained with fluorescent conjugate antibodies to analyze the developmental stages of cells by flow cytometry. […] The columns depict the mean for each group and the error bar indicates the standard error of the mean. The asterisks denote statistical significance between treatment groups and the vehicle control group by one-way ANOVA (* p≦0.05, ** p≦0.01)."}, "[3]": {"test_system": "Sca1+ c-Kit+ lineage negative cells (multipotent hematopoietic stem cells)", "conditions": "mice, 30 mg/kg or 100 mg/kg daily gavage, 70 days, either dose", "procedure": "as §1"}, "eosinophils [4]": {"test_system": "eosinophils", "procedure": "(§2) In FIG. 2A the time period marked “W” represents the end of the 4-week washout following the month 3 time point.\nThe phase 3 clinical trial was a double-blind study of dexpramipexole in ALS patients randomized 1:1 to placebo or dexpramipexole 300 mg daily treatment. Hematology parameters were collected as part of routine safety monitoring. Eosinophil and basophil counts were retrospectively analyzed by visit.\nEosinophil levels were summarized over available time points and analyzed by ANOVA testing the effect of treatment vs. placebo on mean changes in serum eosinophil counts from baseline. Subjects with baseline eosinophils from 0 to 0.02×10^9/L (constituting less than 2% of all subjects analyzed) were censored from the primary analysis because of the inherent limitation to observe a decline from baseline.\nStatistical analysis of the change from baseline was performed at month 6 to remove the effect of study dropouts in later months."}, "[5]": {"test_system": "myeloid and lymphoid cell types, red blood cells, platelets", "conditions": "Phase 3, 300 mg daily, month 6", "procedure": "Hematological parameters were measured in a Phase 3 study of dexpramipexole in ALS. Because of the high rate of mortality among ALS patients, including subjects in the Phase 3 trial, hematology parameters obtained at the month 6 visit were chosen for analysis to remove the effect of study dropouts in later months."}, "eosinophils [6]": {"test_system": "eosinophils", "procedure": "as §2\nThe Phase 2 trial was a two-part, double-blind study that evaluated the safety, tolerability, and clinical effects of dexpramipexole in ALS patients.\nIn Part 1, subjects were randomized to placebo (n=27), 50 mg/day (n=23), 150 mg/day (n=26), or 300 mg/day dexpramipexole (n=26) for 12 weeks.", "remark": "listed apart in the source"}}, "data": [{"smiles": "CCCN[C@@H]1CCc2nc(N)sc2C1", "note": "[dexpramipexole, (6R)-2-amino-4,5,6,7-tetrahydro-6-(propylamino) benzothiazole]", "values": [{"measurement": "effect on eosinophils", "setting": "eosinophils [1]", "result": "dose- and time-dependent reduction in eosinophils"}, {"measurement": "Siglec-F lo IL5Rα hi positive cells in bone marrow vs vehicle control", "setting": "[2]", "result": "lowered"}, {"measurement": "number of Sca1+ c-Kit+ lineage negative cells in bone marrow vs vehicle control", "setting": "[3]", "result": "lowered"}, {"measurement": "peripheral blood eosinophil count", "setting": "eosinophils [4]; Phase 3, after 8-12 weeks of treatment, persisted for the duration of the trial", "result": "profound decrease"}, {"measurement": "eosinophil counts in subject with elevated eosinophil counts at baseline", "setting": "eosinophils [4]; Phase 3 subject with highest baseline eosinophil count, through month 12", "result": "decrease in eosinophil counts"}, {"measurement": "change of all myeloid and lymphoid cell types measured", "setting": "[5]", "result": "statistically significant mean reductions from baseline"}, {"measurement": "effect on eosinophil counts", "setting": "eosinophils [6]; Phase 2 trial in ALS subjects", "result": "dose- and time-dependent decrease in eosinophil counts"}, {"measurement": "eosinophil counts in subject with hypereosinophilia at baseline", "setting": "eosinophils [6]; one Phase 2 subject, Part 2 baseline, through month 12", "result": "decrease in eosinophil counts"}]}]}
